Measured values reported in US20020198215A1 (priority 2000, published 2002).

Assays:
[1] = terazosin therapy; cited from earlier work
[2] = Calculation of the release rate for a terazosin transdermal delivery system from literature pharmacokinetic data; settings: product of steady state concentration and clearance rate
Text: Therefore, an equal dose is required to be delivered transdermally. […] The largest desirable surface area for a transdermal patch is about 40 cm^2. […] To account for drug elimination, further pharmacokinetic data and physiological data was required. […] The largest desirable surface area for a transdermal patch is about 40 cm^2. […] One of skill would expect a different input rate or flux to maintain a steady state concentration in consideration of the rate of loss of drug in the plasma due to elimination. A confirmatory calculation for flux requires further pharmacokinetic parameters. […] The largest desirable surface area for a transdermal patch is about 40 cm^2. […], yields a release rate of […] of transdermal patch surface area.

[3] = cited from earlier work
[4] = system: plasma proteins; settings: cited from earlier work
[5] = after oral administration; cited from earlier work

In the case of `COc1cc2nc(N3CCN(C(=O)C4CCCO4)CC3)nc(N)c2cc1OC` (stereo not drawn) [terazosin, Terazosin], the “adverse effect: asthenia (weakness, tiredness, and fatigue)” value [1] is listed as 11%, the “adverse effect: dizziness” value [1] is listed as 19% and the “adverse effect: drowsiness” value [1] is listed as 5%. For the same molecule, the “adverse effect: headache” value [1] was 16%, the “adverse effect: nasal congestion” value [1] was 6% and the “adverse effect: nausea/vomiting” value [1] was 4.4%. The “adverse effect: peripheral edema” value [1] was 6%, the dosing rate [2] was 216 µg/h and the removed during hemodialysis ([3]; hemodialysis) was 10%. The “effect of impaired renal function on elimination” value ([3]; impaired renal function) was “no significant effect”, the “dose excreted renally as unchanged drug” value ([3]; in vivo) was 10% and the physiological clearance rate ([3]; in vivo) was 4,800 ml/hour. The “plasma concentration at steady state” value ([3]; in vivo) was 45 ng/mL, the first-pass effect ([3]; oral administration) was “minimal first-pass effect” and the “time of peak plasma levels after administration” value ([3]; oral administration) was “about 1 hour”. The bioavailability ([3]; oral dose, gastrointestinal absorption) was 90%, the “effect of food on terazosin bioavailability” value ([3]; oral, presence of food) was “no significant effect” and the “delay of time to peak concentrations by food” value ([3]; oral, with food) was “about 1 hour”. The “plasma drug concentrations versus dosage” value ([3]; treatments from 1 to 5 days, dosages up to 40 mg) was “increased proportionately”, the “bound to plasma proteins” value [4] was 90-94% and the “time until antihypertensive effects are seen” value [5] was no more than 15 min.
